Data on one molecule can be found in article PMC11560554 (Chembiochem : a European journal of chemical biology, 2024).

The target in this test is T1, human macrophage galactose-type lectin (hMGL) (Homo sapiens, UniProt Q8IUN9).
T1 sequence (Q8IUN9 1-316): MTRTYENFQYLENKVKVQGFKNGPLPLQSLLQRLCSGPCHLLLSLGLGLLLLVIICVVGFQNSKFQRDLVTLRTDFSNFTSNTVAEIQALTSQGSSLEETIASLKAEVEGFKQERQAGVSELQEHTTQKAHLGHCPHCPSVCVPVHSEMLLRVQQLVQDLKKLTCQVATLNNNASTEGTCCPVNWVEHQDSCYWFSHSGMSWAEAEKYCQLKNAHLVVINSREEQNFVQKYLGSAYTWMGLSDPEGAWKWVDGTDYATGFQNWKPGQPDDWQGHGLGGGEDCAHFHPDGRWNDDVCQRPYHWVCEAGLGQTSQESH
Description: ITC analysis of binding of GalNAc and MUC1.

Where [1] appears, read: 10 mM HEPES sodium salt, 50 mM NaCl, 2 mM CaCl2, pH 7.4, 298 K, one-site model.

In the case of `CC(=O)N[C@H]1C(O)O[C@H](CO)[C@H](O)[C@@H]1O` (mixture of isomers) [GalNAc, N-acetylgalactosamine], under setting [1], the KA came to 68000 M⁻¹, the ΔG was -6.59 kcal/mol and the “−TΔS” value was found to be 4.97 kcal/mol. Where the note is “complete saturation of hMGL, functional valency = 1/n, pH 7.4, 298 K”, the “n (stoichiometry)” value stood at 0.99.
